The values that follow come from BindingDB's records for doi:10.1016/S0960-894X(01)80103-7 (1994).

A short description of assay [1]: In vitro thromboxane receptor antagonist activity was determined by inhibition of U-46619 induced aggregation of washed human platelets.
Test in assay [2]: as above
The source holds these as a separate data set.

Test in assay [3]: as above
The source holds these as a separate data set.

As a reminder, the IC50 is the concentration needed to halve the response being measured. In assay [1], `O=C(O)CC/C=C\CC[C@@H]1[C@@H](c2cccnc2)[S@@+]([O-])C[C@H]1OCc1ccc(-c2ccccc2)cc1` gave an IC50 of 105 nM.

On to `O=C(O)CC/C=C\CC[C@@H]1[C@@H](c2cccnc2)[S@+]([O-])C[C@H]1OCc1ccc(-c2ccccc2)cc1`, for which it took 77 nM to reach half-maximal inhibition in assay [1] (IC50). Still for that read-out and setting: the value for `O=C(O)CC/C=C\CC[C@H]1[C@@H](OCc2ccc(-c3ccccc3)cc2)CS(=O)(=O)[C@@H]1c1cccnc1` [(Z)-7-[(2S,3S,4R)-4-(Biphenyl-4-ylmethoxy)-1,1-dioxo-2-pyridin-3-yl-tetrahydro-1lambda*6*-thiophen-3-yl]-hept-4-enoic acid] was 24 nM. The molecule `O=C(O)CC/C=C\CC[C@H]1[C@@H](OCc2ccc(-c3ccccc3)cc2)C[S+]([O-])[C@@H]1c1cccnc1` (stereo partly drawn) [(Z)-7-[(2S,3S,4R)-4-(Biphenyl-4-ylmethoxy)-1-oxo-2-pyridin-3-yl-tetrahydro-1lambda*4*-thiophen-3-yl]-hept-4-enoic acid] came in with an IC50 in assay [1] of 57 nM.

In turn, `O=C(O)CC/C=C\CC[C@H]1[C@@H](OCc2ccc(-c3ccccc3)cc2)CS[C@@H]1c1cccnc1` [(Z)-7-[(2S,3S,4R)-4-(Biphenyl-4-ylmethoxy)-2-pyridin-3-yl-tetrahydro-thiophen-3-yl]-hept-4-enoic acid] yielded a half-maximal inhibitory concentration (IC50) in assay [1] of 46 nM. Take `O=C(O)CC/C=C\CC[C@@H]1[C@@H](c2cccnc2)S(=O)(=O)C[C@H]1OCc1ccc(-c2ccccc2)cc1` [(Z)-7-[(2S,3S,4S)-4-(Biphenyl-4-ylmethoxy)-1,1-dioxo-2-pyridin-3-yl-tetrahydro-1lambda*6*-thiophen-3-yl]-hept-4-enoic acid]: in assay [1], the IC50 turned out to be 18 nM.

`O=C(O)CC/C=C\CC[C@@H]1[C@@H](c2cccnc2)SC[C@H]1OCc1ccc(-c2ccccc2)cc1` [(Z)-7-[(2S,3S,4S)-4-(Biphenyl-4-ylmethoxy)-2-pyridin-3-yl-tetrahydro-thiophen-3-yl]-hept-4-enoic acid]: the 50% inhibitory concentration (IC50) in assay [2] worked out at 46 nM; in assay [3] it was 22 nM. `O=C(O)CCC/C=C\C[C@@H]1[C@@H](c2cccnc2)SC[C@H]1OCc1ccc(-c2ccccc2)cc1` [(Z)-7-[(2S,3S,4S)-4-(Biphenyl-4-ylmethoxy)-2-pyridin-3-yl-tetrahydro-thiophen-3-yl]-hept-5-enoic acid]: half-maximal inhibition in assay [1] (IC50) was put at 228 nM.

`O=C(O)CC/C=C\CC[C@@H]1[C@@H](N2CCCCC2)[C@@H](O)C[C@@H]1OCc1ccc(-c2ccccc2)cc1` [GR 32191] returned a 50% inhibitory concentration (IC50) in assay [1] of 12 nM.
